We go through 13 compounds from paper PMC9077236, “Gs protein peptidomimetics as allosteric modulators of the β2-adrenergic receptor” (RSC Advances, 2018).

Series [1] is described as follows: CuAAC (i,i+4) side-chain stapling of azidolysine with propargylglycine or O-propargylserine; CuSO4·5H2O (1 eq), Na ascorbate (5 eq); from crude linear peptides. To be noted: the molecule shown is the open-chain precursor, tBuOH/H2O 1:2, 0.5 mM, 25.0 °C.
The nature of series [2]: CuAAC (i,i+4) side-chain stapling of azidolysine with propargylglycine or O-propargylserine; CuSO4·5H2O (1 eq), Na ascorbate (5 eq); from purified linear peptides. The conditions noted are these: the molecule shown is the open-chain precursor, tBuOH/H2O 1:2, 0.5 mM, 25.0 °C.
Series [3] deals with T1, β2-adrenergic receptor (β2AR) (Homo sapiens, UniProt P07550).
T1 construct: expressed in transfected cells; host or cells: HEK293 cells stably overexpressing β2AR; membrane fractions used
T1 sequence (P07550 whole entry, species assumed): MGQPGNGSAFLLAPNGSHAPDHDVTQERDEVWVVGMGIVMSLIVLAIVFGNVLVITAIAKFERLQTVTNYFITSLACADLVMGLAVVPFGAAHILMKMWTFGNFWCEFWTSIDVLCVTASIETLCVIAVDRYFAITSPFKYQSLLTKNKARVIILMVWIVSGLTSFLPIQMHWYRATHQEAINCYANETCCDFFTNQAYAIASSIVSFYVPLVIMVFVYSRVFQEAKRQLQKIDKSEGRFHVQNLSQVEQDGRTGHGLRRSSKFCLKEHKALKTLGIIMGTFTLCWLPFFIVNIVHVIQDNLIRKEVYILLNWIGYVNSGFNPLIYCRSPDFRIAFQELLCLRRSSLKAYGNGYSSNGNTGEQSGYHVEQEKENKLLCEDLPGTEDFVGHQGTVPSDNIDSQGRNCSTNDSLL
The series is described as follows: Membrane-based cAMP accumulation assay (HTRF), ISO-induced cAMP formation. It is filed as biochemical. A general note: cAMP levels reflect the balance of adenylyl cyclase and phosphodiesterase activity.
Procedure: To allow the peptidomimetics to interact with the intracellular G protein binding pocket they were tested in a membrane-based cAMP accumulation assay (see ESI ^†). […] The cAMP levels in absence of peptidomimetics were normalised to the basal (0%) and maximal efficacy (100%) of ISO in presence of vehicle (DMSO).
overexpressing the β2AR8 were prepared and the peptidomimetics tested as previously
peptidomimetics diluted in HBSS buffer supplemented with 20 mM HEPES pH 7.5, 0.1 %
Elmer) at room temperature (RT) for 15 min. Then isoproterenol solutions for the
prepared in ligand buffer (HBSS buffer supplemented with 20 mM HEPES pH 7.5, 0.1 %
added to the wells and incubated for 30 min at room temperature. To detect cAMP formation
the HTRF cAMP d ynamic 2 assa y kit from CisBio (cat no. 2AM4PEC) was used according
to the manufactures protocol. The absolute cAMP levels were determined using a cAMP
standard curve and norm alised to the maximal cAMP response obtained by full isoproterenol
stimulation alone. Significant differen ces b etween IS O alon e and in presence of the p eptides
were calculat ed statisticall y b y use of on e- wa y ANOVA in the GraphPad Prism software.

`C#CC[C@H](NC(=O)[C@H](CCCC)NC(=O)[C@H](CCCNC(=N)N)NC(=O)[C@H](CCC(N)=O)NC(=O)[C@H](CCCCN=[N+]=[N-])NC(=O)[C@@H](NC(=O)[C@H](CC(=O)O)NC(=O)[C@H](CCCNC(=N)N)NC(C)=O)[C@@H](C)CC)C(=O)N[C@@H](CC(C)C)C(=O)N[C@@H](CCCNC(=N)N)C(=O)N[C@@H](CCC(N)=O)C(=O)N[C@@H](Cc1ccc(O)cc1)C(=O)N[C@@H](CCC(=O)O)C(=O)N[C@@H](CC(C)C)C(=O)N[C@@H](CC(C)C)C(=O)O` [Ac-R-D-I-K(N3)-Q-R-Nle-Pra-L-R-Q-Y-E-L-L-OH] gave a ring closure, overall yield in series [1] (21-membered ring) of 10%.
As for `C#CCOC[C@H](NC(=O)[C@H](CCCNC(=N)N)NC(=O)[C@H](CC(C)C)NC(=O)[C@H](Cc1cnc[nH]1)NC(=O)[C@@H](CCCCN=[N+]=[N-])NC(=O)[C@H](CCCNC(=N)N)NC(=O)[C@H](CCC(N)=O)NC(=O)[C@@H](NC(=O)[C@@H](NC(=O)[C@H](CC(=O)O)NC(=O)[C@H](CCCNC(=N)N)NC(C)=O)[C@@H](C)CC)[C@@H](C)CC)C(=O)N[C@@H](Cc1ccc(O)cc1)C(=O)N[C@@H](CCC(=O)O)C(=O)N[C@@H](CC(C)C)C(=O)N[C@@H](CC(C)C)C(=O)O` [Ac-R-D-I-I-Q-R-(D-K(N3))-H-L-R-Ser(O-propargyl)-Y-E-L-L-OH], the ring closure, overall yield in series [1] (23-membered ring, 3.0 h) was 11%.
In series [1] (21-membered ring, 3.0 h), `C#CC[C@H](NC(=O)[C@H](CCCNC(=N)N)NC(=O)[C@H](CC(C)C)NC(=O)[C@H](Cc1cnc[nH]1)NC(=O)[C@H](CCCCN=[N+]=[N-])NC(=O)[C@H](CCCNC(=N)N)NC(=O)[C@H](CCC(N)=O)NC(=O)[C@@H](NC(=O)[C@@H](NC(=O)[C@H](CC(=O)O)NC(=O)[C@H](CCCNC(=N)N)NC(C)=O)[C@@H](C)CC)[C@@H](C)CC)C(=O)N[C@@H](Cc1ccc(O)cc1)C(=O)N[C@@H](CCC(=O)O)C(=O)N[C@@H](CC(C)C)C(=O)N[C@@H](CC(C)C)C(=O)O` [Ac-R-D-I-I-Q-R-K(N3)-H-L-R-Pra-Y-E-L-L-OH] had a ring closure, overall yield of 10%.
`C#CCOC[C@H](NC(=O)[C@H](CCCC)NC(=O)[C@H](CCCNC(=N)N)NC(=O)[C@H](CCC(N)=O)NC(=O)[C@H](CCCCN=[N+]=[N-])NC(=O)[C@@H](NC(=O)[C@H](CC(=O)O)NC(=O)[C@H](CCCNC(=N)N)NC(C)=O)[C@@H](C)CC)C(=O)N[C@@H](CC(C)C)C(=O)N[C@@H](CCCNC(=N)N)C(=O)N[C@@H](CCC(N)=O)C(=O)N[C@@H](Cc1ccc(O)cc1)C(=O)N[C@@H](CCC(=O)O)C(=O)N[C@@H](CC(C)C)C(=O)N[C@@H](CC(C)C)C(=O)O` [Ac-R-D-I-K(N3)-Q-R-Nle-Ser(O-propargyl)-L-R-Q-Y-E-L-L-OH] registered a ring closure, overall yield in series [1] (23-membered ring, 1.0 h) of 15%.
In the case of `C#CCOC[C@H](NC(=O)[C@H](CCCNC(=N)N)NC(=O)[C@H](CCC(N)=O)NC(=O)[C@@H](NC(=O)[C@@H](CCCCN=[N+]=[N-])NC(=O)[C@H](CC(=O)O)NC(=O)[C@H](CCCNC(=N)N)NC(C)=O)[C@@H](C)CC)C(=O)N[C@@H](Cc1cnc[nH]1)C(=O)N[C@@H](CC(C)C)C(=O)N[C@@H](CCCNC(=N)N)C(=O)N[C@@H](CCC(N)=O)C(=O)N[C@@H](Cc1ccc(O)cc1)C(=O)N[C@@H](CCC(=O)O)C(=O)N[C@@H](CC(C)C)C(=O)N[C@@H](CC(C)C)C(=O)O` [Ac-R-D-(D-K(N3))-I-Q-R-Ser(O-propargyl)-H-L-R-Q-Y-E-L-L-OH], the ring closure, isolated yield in series [2] (23-membered ring) stood at 40%.
In series [1] (21-membered ring, 1.0 h), `C#CC[C@H](NC(=O)[C@H](CCCNC(=N)N)NC(=O)[C@H](CC(C)C)NC(=O)[C@H](Cc1cnc[nH]1)NC(=O)[C@@H](CCCCN=[N+]=[N-])NC(=O)[C@H](CCCNC(=N)N)NC(=O)[C@H](CCC(N)=O)NC(=O)[C@@H](NC(=O)[C@@H](NC(=O)[C@H](CC(=O)O)NC(=O)[C@H](CCCNC(=N)N)NC(C)=O)[C@@H](C)CC)[C@@H](C)CC)C(=O)N[C@@H](Cc1ccc(O)cc1)C(=O)N[C@@H](CCC(=O)O)C(=O)N[C@@H](CC(C)C)C(=O)N[C@@H](CC(C)C)C(=O)O` [Ac-R-D-I-I-Q-R-(D-K(N3))-H-L-R-Pra-Y-E-L-L-OH] registered a ring closure, overall yield of 26%.
Regarding `C#CC[C@H](NC(=O)[C@H](CCCC)NC(=O)[C@H](CCCNC(=N)N)NC(=O)[C@H](CCC(N)=O)NC(=O)[C@@H](CCCCN=[N+]=[N-])NC(=O)[C@@H](NC(=O)[C@H](CC(=O)O)NC(=O)[C@H](CCCNC(=N)N)NC(C)=O)[C@@H](C)CC)C(=O)N[C@@H](CC(C)C)C(=O)N[C@@H](CCCNC(=N)N)C(=O)N[C@@H](CCC(N)=O)C(=O)N[C@@H](Cc1ccc(O)cc1)C(=O)N[C@@H](CCC(=O)O)C(=O)N[C@@H](CC(C)C)C(=O)N[C@@H](CC(C)C)C(=O)O` [Ac-R-D-I-(D-K(N3))-Q-R-Nle-Pra-L-R-Q-Y-E-L-L-OH], the ring closure, overall yield in series [1] (21-membered ring) stood at 11%.
`C#CCOC[C@H](NC(=O)[C@H](CCCC)NC(=O)[C@H](CCCNC(=N)N)NC(=O)[C@H](CCC(N)=O)NC(=O)[C@@H](CCCCN=[N+]=[N-])NC(=O)[C@@H](NC(=O)[C@H](CC(=O)O)NC(=O)[C@H](CCCNC(=N)N)NC(C)=O)[C@@H](C)CC)C(=O)N[C@@H](CC(C)C)C(=O)N[C@@H](CCCNC(=N)N)C(=O)N[C@@H](CCC(N)=O)C(=O)N[C@@H](Cc1ccc(O)cc1)C(=O)N[C@@H](CCC(=O)O)C(=O)N[C@@H](CC(C)C)C(=O)N[C@@H](CC(C)C)C(=O)O` [Ac-R-D-I-(D-K(N3))-Q-R-Nle-Ser(O-propargyl)-L-R-Q-Y-E-L-L-OH] yielded a ring closure, overall yield in series [1] (23-membered ring) of 13%.
The compound `C#CCOC[C@H](NC(=O)[C@H](CCCNC(=N)N)NC(=O)[C@H](CCC(N)=O)NC(=O)[C@@H](NC(=O)[C@H](CCCCN=[N+]=[N-])NC(=O)[C@H](CC(=O)O)NC(=O)[C@H](CCCNC(=N)N)NC(C)=O)[C@@H](C)CC)C(=O)N[C@@H](Cc1cnc[nH]1)C(=O)N[C@@H](CC(C)C)C(=O)N[C@@H](CCCNC(=N)N)C(=O)N[C@@H](CCC(N)=O)C(=O)N[C@@H](Cc1ccc(O)cc1)C(=O)N[C@@H](CCC(=O)O)C(=O)N[C@@H](CC(C)C)C(=O)N[C@@H](CC(C)C)C(=O)O` [Ac-R-D-K(N3)-I-Q-R-Ser(O-propargyl)-H-L-R-Q-Y-E-L-L-OH] gave a ring closure, isolated yield in series [2] (23-membered ring, 1.0 h) of 69%.
On to `C#CCOC[C@H](NC(=O)[C@H](CCCNC(=N)N)NC(=O)[C@H](CC(C)C)NC(=O)[C@H](Cc1cnc[nH]1)NC(=O)[C@H](CCCCN=[N+]=[N-])NC(=O)[C@H](CCCNC(=N)N)NC(=O)[C@H](CCC(N)=O)NC(=O)[C@@H](NC(=O)[C@@H](NC(=O)[C@H](CC(=O)O)NC(=O)[C@H](CCCNC(=N)N)NC(C)=O)[C@@H](C)CC)[C@@H](C)CC)C(=O)N[C@@H](Cc1ccc(O)cc1)C(=O)N[C@@H](CCC(=O)O)C(=O)N[C@@H](CC(C)C)C(=O)N[C@@H](CC(C)C)C(=O)O` [Ac-R-D-I-I-Q-R-K(N3)-H-L-R-Ser(O-propargyl)-Y-E-L-L-OH], for which the ring closure, overall yield in series [1] (23-membered ring, 2.0 h) was found to be 14%.
For orientation: IC50 means the concentration that inhibits the measured activity by half. With `CC[C@H](C)[C@H](NC(=O)[C@H](CC(=O)O)NC(=O)[C@H](CCCNC(=N)N)NC(C)=O)C(=O)N[C@H](C(=O)N[C@@H](CCC(N)=O)C(=O)N[C@@H](CCCNC(=N)N)C(=O)N[C@H]1CCCCn2cc(nn2)C[C@@H](C(=O)N[C@@H](Cc2ccc(O)cc2)C(=O)N[C@@H](CCC(=O)O)C(=O)N[C@@H](CC(C)C)C(=O)N[C@@H](CC(C)C)C(=O)O)NC(=O)[C@H](CCCNC(=N)N)NC(=O)[C@H](CC(C)C)NC(=O)[C@H](Cc2c[nH]cn2)NC1=O)[C@@H](C)CC` [Peptide 10C], the “Maximum efficacy of ISO” value in series [3] (ISO CRC in presence of 100 μM peptidomimetic, HEK293 membranes overexpressing β2AR, normalised to ISO with vehicle (100%), mean ± SEM, n = 3, * P < 0.05) is 61.0 ± 4.1* %. In series [3] (ISO CRC in presence of 100 μM peptidomimetic, HEK293 membranes overexpressing β2AR, normalised to basal (0%) and maximal efficacy (100%) of ISO with vehicle (DMSO), 15 min preincubation, 30 min RT, mean ± SEM, n = 3), the “Basal level (basal cAMP level of the ISO concentration-response curve)” value is −11.0 ± 4.3%. In series [3] (in presence of 100 μM peptidomimetic, mean ± SEM, n = 3), the “Hill slope of the ISO concentration-response curve” value is listed as 0.63 ± 0.06. The IC50 in series [3] (in presence of an ISO concentration corresponding to EC75, 10C up to 200 μM, read-out: IC50 for blocking ISO-induced cAMP formation (estimated)) was 55 µM.
In series [2] (21-membered ring, 0.25 h), `C#CC[C@H](NC(=O)[C@H](CCCNC(=N)N)NC(=O)[C@H](CCC(N)=O)NC(=O)[C@@H](NC(=O)[C@@H](CCCCN=[N+]=[N-])NC(=O)[C@H](CC(=O)O)NC(=O)[C@H](CCCNC(=N)N)NC(C)=O)[C@@H](C)CC)C(=O)N[C@@H](Cc1cnc[nH]1)C(=O)N[C@@H](CC(C)C)C(=O)N[C@@H](CCCNC(=N)N)C(=O)N[C@@H](CCC(N)=O)C(=O)N[C@@H](Cc1ccc(O)cc1)C(=O)N[C@@H](CCC(=O)O)C(=O)N[C@@H](CC(C)C)C(=O)N[C@@H](CC(C)C)C(=O)O` [Ac-R-D-(D-K(N3))-I-Q-R-Pra-H-L-R-Q-Y-E-L-L-OH] gave a ring closure, isolated yield of 56%.
On to `C#CC[C@H](NC(=O)[C@H](CCCNC(=N)N)NC(=O)[C@H](CCC(N)=O)NC(=O)[C@@H](NC(=O)[C@H](CCCCN=[N+]=[N-])NC(=O)[C@H](CC(=O)O)NC(=O)[C@H](CCCNC(=N)N)NC(C)=O)[C@@H](C)CC)C(=O)N[C@@H](Cc1cnc[nH]1)C(=O)N[C@@H](CC(C)C)C(=O)N[C@@H](CCCNC(=N)N)C(=O)N[C@@H](CCC(N)=O)C(=O)N[C@@H](Cc1ccc(O)cc1)C(=O)N[C@@H](CCC(=O)O)C(=O)N[C@@H](CC(C)C)C(=O)N[C@@H](CC(C)C)C(=O)O` [Ac-R-D-K(N3)-I-Q-R-Pra-H-L-R-Q-Y-E-L-L-OH], for which the ring closure, isolated yield in series [2] (21-membered ring, 0.25 h) came out at 36%.
